The numbers were not newly measured in PubChem BioAssay AID1259409 (Chemical Carcinogenesis Research Information System (CCRIS), 2018), which cites them from elsewhere.

This data set has as its system rodent chemically induced tumor inhibition, incidence and multiplicity. Description: CCRIS tumor inhibitor studies. The settings on record: Dose [Inhibitor]: 0.

In the case of `COc1cc(/C=C/C(=O)CC(=O)/C=C/c2ccc(O)c(OC)c2)ccc1O`, the “tumour outcome (control, treated, inhibition, significance)” value (Carcinogen: AZOXYMETHANE, 25843-45-2, 4% COMMERCIAL GRADE CURCUMIN IN DIET FOR 35 WK BEGINNING 2 WK PRIOR TO CARCINOGEN TREATMENT (STUDY DURATION: 35 WK), Route [Inhibitor]: ORAL, Species: MOUSE, Strain/Sex: CF-1/FEMALE, Target Tissue: Type of Lesion: COLON: ADENOCARCINOMA, Dose [Carcinogen]: 10 MG/KG BW IN 100 µL NORMAL SALINE 1/WK FOR 6 WK, Promoter: NONE USED) is listed as 40%, 15%, 63%, not significant; the “tumour outcome (control, treated, inhibition, significance)” value (Carcinogen: AZOXYMETHANE, 25843-45-2, 4% COMMERCIAL GRADE CURCUMIN IN DIET FOR 35 WK BEGINNING 2 WK PRIOR TO CARCINOGEN TREATMENT (STUDY DURATION: 35 WK), Route [Inhibitor]: ORAL, Species: MOUSE, Strain/Sex: CF-1/FEMALE, Target Tissue: Type of Lesion: COLON: ADENOMA, Dose [Carcinogen]: 10 MG/KG BW IN 100 µL NORMAL SALINE 1/WK FOR 6 WK, Promoter: NONE USED) is reported as 93%, 56%, 40%, not significant; the “tumour outcome (control, treated, inhibition, significance)” value (Carcinogen: AZOXYMETHANE, 25843-45-2, 200O PPM IN DIET FOR 56 WK BEGINNING 2 WK PRIOR TO CARCINOGEN TREATMENT (STUDY DURATION: 56 WK), Route [Inhibitor]: ORAL, Species: RAT, Strain/Sex: F344/MALE, Target Tissue: Type of Lesion: COLON: ADENOCARCINOMA, Dose [Carcinogen]: 15 MG/KG BW 1/WK FOR 2 WK, Promoter: NONE USED) is given as 81%, 47%, 42%, p<0.004; the “tumour outcome (control, treated, inhibition, significance)” value (Carcinogen: BENZO[A]PYRENE, 50-32-8, 0.5% COMMERCIAL GRADE CURCUMIN IN DIET FOR 7 WK BEGINNING 2 WK PRIOR TO CARCINOGEN TREATMENT (STUDY DURATION: 30 WK), Route [Inhibitor]: ORAL, Species: MOUSE, Strain/Sex: STRAIN-A/FEMALE, Target Tissue: Type of Lesion: FORESTOMACH: PAPILLOMA, Dose [Carcinogen]: 1.5 MG IN 100 µL CORN OIL 1/WK FOR 4 WK, Promoter: NONE USED) is reported as 97%, 87%, 10%, not significant; the “tumour outcome (control, treated, inhibition, significance)” value (Carcinogen: BENZO[A]PYRENE, 50-32-8, 0.5% COMMERCIAL GRADE CURCUMIN IN DIET FOR 7 WK BEGINNING 2 WK PRIOR TO CARCINOGEN TREATMENT (STUDY DURATION: 30 WK), Route [Inhibitor]: ORAL, Species: MOUSE, Strain/Sex: STRAIN-A/FEMALE, Target Tissue: Type of Lesion: FORESTOMACH: SQUAMOUS CELL CARCINOMA, Dose [Carcinogen]: 1.5 MG IN 100 µL CORN OIL 1/WK FOR 4 WK, Promoter: NONE USED) is listed as 41%, 23%, 44%, not significant; the “tumour outcome (control, treated, inhibition, significance)” value (Carcinogen: BENZO[A]PYRENE, 50-32-8, 0.5% COMMERCIAL GRADE CURCUMIN IN DIET FOR 23 WK BEGINNING 1 WK POST CARCINOGEN TREATMENT (STUDY DURATION: 30 WK), Route [Inhibitor]: ORAL, Species: MOUSE, Strain/Sex: STRAIN-A/FEMALE, Target Tissue: Type of Lesion: FORESTOMACH: PAPILLOMA, Dose [Carcinogen]: 1.5 MG IN 100 µL CORN OIL 1/WK FOR 4 WK, Promoter: NONE USED) is recorded as 97%, 89%, 8%, not significant. The “tumour outcome (control, treated, inhibition, significance)” value reads like this: (Carcinogen: BENZO[A]PYRENE, 50-32-8, 0.5% COMMERCIAL GRADE CURCUMIN IN DIET FOR 23 WK BEGINNING 1 WK POST CARCINOGEN TREATMENT (STUDY DURATION: 30 WK), Route [Inhibitor]: ORAL, Species: MOUSE, Strain/Sex: STRAIN-A/FEMALE, Target Tissue: Type of Lesion: FORESTOMACH: SQUAMOUS CELL CARCINOMA, Dose [Carcinogen]: 1.5 MG IN 100 µL CORN OIL 1/WK FOR 4 WK, Promoter: NONE USED) 41%, 30%, 27%, not significant; (Carcinogen: BENZO[A]PYRENE, 50-32-8, 2% COMMERCIAL GRADE CURCUMIN IN DIET FOR 7 WK BEGINNING 2 WK PRIOR TO CARCINOGEN TREATMENT (STUDY DURATION: 30 WK), Route [Inhibitor]: ORAL, Species: MOUSE, Strain/Sex: STRAIN-A/FEMALE, Target Tissue: Type of Lesion: FORESTOMACH: PAPILLOMA, Dose [Carcinogen]: 1.5 MG IN 100 µL CORN OIL 1/WK FOR 4 WK, Promoter: NONE USED) 97%, 83%, 14%, not significant; (Carcinogen: BENZO[A]PYRENE, 50-32-8, 2% COMMERCIAL GRADE CURCUMIN IN DIET FOR 7 WK BEGINNING 2 WK PRIOR TO CARCINOGEN TREATMENT (STUDY DURATION: 30 WK), Route [Inhibitor]: ORAL, Species: MOUSE, Strain/Sex: STRAIN-A/FEMALE, Target Tissue: Type of Lesion: FORESTOMACH: SQUAMOUS CELL CARCINOMA, Dose [Carcinogen]: 1.5 MG IN 100 µL CORN OIL 1/WK FOR 4 WK, Promoter: NONE USED) 41%, 10%, 76%, not significant; (Carcinogen: BENZO[A]PYRENE, 50-32-8, 2% COMMERCIAL GRADE CURCUMIN IN DIET FOR 23 WK BEGINNING 1 WK POST CARCINOGEN TREATMENT (STUDY DURATION: 30 WK), Route [Inhibitor]: ORAL, Species: MOUSE, Strain/Sex: STRAIN-A/FEMALE, Target Tissue: Type of Lesion: FORESTOMACH: PAPILLOMA, Dose [Carcinogen]: 1.5 MG IN 100 µL CORN OIL 1/WK FOR 4 WK, Promoter: NONE USED) 97%, 79%, 19%, not significant; (Carcinogen: BENZO[A]PYRENE, 50-32-8, 2% COMMERCIAL GRADE CURCUMIN IN DIET FOR 23 WK BEGINNING 1 WK POST CARCINOGEN TREATMENT (STUDY DURATION: 30 WK), Route [Inhibitor]: ORAL, Species: MOUSE, Strain/Sex: STRAIN-A/FEMALE, Target Tissue: Type of Lesion: FORESTOMACH: SQUAMOUS CELL CARCINOMA, Dose [Carcinogen]: 1.5 MG IN 100 µL CORN OIL 1/WK FOR 4 WK, Promoter: NONE USED) 41%, 14%, 66%, not significant; (Carcinogen: BENZO[A]PYRENE, 50-32-8, 3 UMOL IN ACETONE 1/WK FOR 10 WK APPLIED 5 MIN PRIOR TO EACH CARCINOGEN DOSE (STUDY DURATION: 32 WK), Route [Inhibitor]: DERMAL, Species: MOUSE, Strain/Sex: CD-1/FEMALE, Target Tissue: Type of Lesion: SKIN: TUMORS, Dose [Carcinogen]: 20 NMOL 1/WK FOR 10 WK, Promoter: 12-O-TETRADECANOYLPHORBOL-13-ACETATE, 16561-29-8) 100%, 75%, 25%, not calculated. Besides, the “tumour outcome (control, treated, inhibition, significance)” value reads like this: (Carcinogen: BENZO[A]PYRENE, 50-32-8, 5% IN DIET FOR 8 WK BEGINNING 2 WK PRIOR TO CARCINOGEN TREATMENT (STUDY DURATION: 20 WK), Route [Inhibitor]: ORAL, Species: MOUSE, Strain/Sex: SWISS/FEMALE, Target Tissue: Type of Lesion: FORESTOMACH: TUMOR, Dose [Carcinogen]: 1 MG IN 0.1 ML PEANUT OIL 2/WK FOR 4 WK, Promoter: NONE USED) 20/20 (100%), 12/20 (60%), 40%, p<0.001; (Carcinogen: BENZO[A]PYRENE, 50-32-8, 10 UMOL IN ACETONE 1/WK FOR 10 WK APPLIED 5 MIN PRIOR TO EACH CARCINOGEN DOSE (STUDY DURATION: 32 WK), Route [Inhibitor]: DERMAL, Species: MOUSE, Strain/Sex: CD-1/FEMALE, Target Tissue: Type of Lesion: SKIN: TUMORS, Dose [Carcinogen]: 20 NMOL 1/WK FOR 10 WK, Promoter: 12-O-TETRADECANOYLPHORBOL-13-ACETATE, 16561-29-8) 100%, 82%, 18%, not calculated.
